What all share (type): biochemical
In one experiment the target is T1, PYK-F (Escherichia coli, UniProt P0AD61).
T1 construct: gene pykF; full length, 470 residues, 50 kDa monomer, N-terminal 6xHis tag kept, pET-28a(+), expressed in E. coli BL21(DE3), Ni-NTA purified, homotetramer
Nature of the experiment: direct 1H NMR kinetic assay (pyruvate methyl peak). The note with it: 2 mM PEP, 4 mM ADP, pH 7.5, 10 °C, no ribosomes; 0-8x of 50 μg/mL.

A further experiment addresses T2, LDH-A (Escherichia coli, UniProt P52643, form not given, species not given).
T2 construct: gene ldhA; commercial recombinant enzyme (Sigma-Aldrich); authors doubt its source; printed P33232 is the quinone-dependent LldD, not an NADH-dependent LDH, so identity unresolved
As to the kind of experiment: direct 1H NMR kinetic assay (lactate methyl peak). The note with it: substrate inhibition; 0.5 mM NADH, 0.04 nM enzyme, pH 7.5, 10 mM sodium phosphate, 50 mM KCl, 10 mM MgCl2, 10 °C, no ribosomes.

The target of a further experiment is T3, PFK-A (Geobacillus stearothermophilus, UniProt P00512).
T3 construct: gene pfkA; commercial lyophilized enzyme (Sigma-Aldrich)
Nature of the experiment: direct 1H NMR kinetic assay (FBP peak). The note with it: substrate inhibition; 1 mM F6P, 1 nM enzyme, pH 7.5, 10 mM sodium phosphate, 50 mM KCl, 10 mM MgCl2, 10 °C, no ribosomes.

We go through four molecules from article PMC12177922, “In Vivo Ribosome-Amplified MetaBOlism, RAMBO, Effect Observed by Real Time Pulse Chase, RTPC, NMR Spectroscopy” (Biochemistry, 2025).

Turning to `CN[C@@H]1[C@H](O[C@H]2[C@H](O[C@H]3[C@H](O)[C@@H](O)[C@H](N=C(N)N)[C@@H](O)[C@@H]3N=C(N)N)O[C@@H](C)[C@]2(O)C=O)O[C@@H](CO)[C@H](O)[C@H]1O` [Str], on PYK-F, the reduced activity result is “Ths, Kan and Str reduced PYK-F activity in both the presence and absence of ribosomes”. For `NC[C@H]1O[C@H](O[C@H]2[C@H](O)[C@@H](O[C@H]3O[C@H](CO)[C@@H](O)[C@H](N)[C@H]3O)[C@H](N)C[C@@H]2N)[C@H](O)[C@@H](O)[C@@H]1O` [Kan], the reduced activity result on PYK-F is “Ths, Kan and Str reduced PYK-F activity in both the presence and absence of ribosomes”. With `CC(=O)C(=O)O` [PYR], the KI at LDH-A was found to be 0.495 ± 0.074 mM.

For the molecule `Nc1ncnc2c1ncn2[C@@H]1O[C@H](COP(=O)(O)OP(=O)(O)OP(=O)(O)O)[C@@H](O)[C@H]1O` [ATP], at PFK-A, the KI is on record as 5.6 ± 1.2 mM.
